Data from PubChem BioAssay (NCI).
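Test compounds were applied to cells in 96-well plates for 48 hours at 5 doses. TGI: concentration producing complete growth inhibition.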

Experiments:
Experiment in all cases: NCI-60 cell line screen, 48 h
HOP-62 NSCLC = test system: HOP-62 NSCLC
SK-MEL-2 melanoma = test system: SK-MEL-2 melanoma
MCF7 breast = test system: MCF7 breast
EKVX NSCLC = test system: EKVX NSCLC
TK-10 renal = test system: TK-10 renal
OVCAR-3 ovarian = test system: OVCAR-3 ovarian
NCI-H23 lung = test system: NCI-H23 lung
LOX IMVI melanoma = test system: LOX IMVI melanoma
ACHN renal = test system: ACHN renal
A549 NSCLC = test system: A549 NSCLC
BT-549 breast = test system: BT-549 breast
UO-31 renal = test system: UO-31 renal
SNB-19 CNS = test system: SNB-19 CNS
DU-145 prostate = test system: DU-145 prostate
MDA-N = test system: MDA-N
MALME-3M melanoma = test system: MALME-3M melanoma
HCT-116 colon = test system: HCT-116 colon
HCC-2998 colon = test system: HCC-2998 colon
UACC-62 melanoma = test system: UACC-62 melanoma
NCI/ADR-RES ovarian = test system: NCI/ADR-RES ovarian
M14 melanoma = test system: M14 melanoma
SN12C renal = test system: SN12C renal
MDA-MB-435 = test system: MDA-MB-435
OVCAR-8 ovarian = test system: OVCAR-8 ovarian
SW-620 colon = test system: SW-620 colon
MDA-MB-231 breast = test system: MDA-MB-231 breast
CCRF-CEM leukemia = test system: CCRF-CEM leukemia
786-0 renal = test system: 786-0 renal
HOP-92 NSCLC = test system: HOP-92 NSCLC
SK-MEL-28 melanoma = test system: SK-MEL-28 melanoma
RXF 393 renal = test system: RXF 393 renal
MOLT-4 leukemia = test system: MOLT-4 leukemia
SK-OV-3 ovarian = test system: SK-OV-3 ovarian
OVCAR-4 ovarian = test system: OVCAR-4 ovarian
HL-60(TB) leukemia = test system: HL-60(TB) leukemia
OVCAR-5 ovarian = test system: OVCAR-5 ovarian
T-47D breast = test system: T-47D breast
PC-3 prostate = test system: PC-3 prostate
RPMI-8226 leukemia = test system: RPMI-8226 leukemia
U251 CNS = test system: U251 CNS
NCI-H226 lung = test system: NCI-H226 lung
SF-539 CNS = test system: SF-539 CNS
CAKI-1 renal = test system: CAKI-1 renal
UACC-257 melanoma = test system: UACC-257 melanoma
SR leukemia = test system: SR leukemia
SF-268 CNS = test system: SF-268 CNS
SF-295 CNS = test system: SF-295 CNS
HS 578T breast = test system: HS 578T breast
HT29 colon = test system: HT29 colon
COLO 205 colon = test system: COLO 205 colon
HCT-15 colon = test system: HCT-15 colon
KM12 colon = test system: KM12 colon
NCI-H522 lung = test system: NCI-H522 lung

Measured: TGI

Cc1ccc(/C=C2\N=C(N3CCCCC3)NC2=O)cc1
> 100 µM: all assays above
